Drawing on US7872006B2, “Pyrazole compounds having cannabinoid receptor (CB1) antagonizing activity” (Mitsubishi Tanabe Pharma Corporation, priority 2005, dated 2011), this text covers IC50 for twelve compounds.

Some results are limits rather than exact numbers.

T1 sequence (P21554 whole entry): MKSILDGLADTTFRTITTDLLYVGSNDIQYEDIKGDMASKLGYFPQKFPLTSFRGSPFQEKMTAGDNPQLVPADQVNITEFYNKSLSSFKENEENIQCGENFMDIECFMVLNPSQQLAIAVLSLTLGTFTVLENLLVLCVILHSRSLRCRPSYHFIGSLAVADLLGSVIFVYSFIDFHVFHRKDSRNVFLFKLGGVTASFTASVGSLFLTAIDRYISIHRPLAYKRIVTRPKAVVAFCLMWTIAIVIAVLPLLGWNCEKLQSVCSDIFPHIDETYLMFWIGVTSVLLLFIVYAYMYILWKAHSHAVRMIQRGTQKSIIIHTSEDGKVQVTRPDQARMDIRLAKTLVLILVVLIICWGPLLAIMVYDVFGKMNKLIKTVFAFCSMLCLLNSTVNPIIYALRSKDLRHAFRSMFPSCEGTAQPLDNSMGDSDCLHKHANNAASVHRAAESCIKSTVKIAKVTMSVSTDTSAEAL

The first test concerns the target T1, Human CB1 receptor (Homo sapiens, UniProt P21554).
T1 construct: host or cells: CHO cells; the membrane fraction was prepared in house from the purchased recombinant line
In words: Human CB1 receptor binding assay ([3H]-CP55940 displacement).
Settings: not given
How it is done: [Human CB1 Receptor Binding Assay]
(1) Preparation of human CB1 receptor (membrane fraction):
Human CB1-expressing cell line: hCB1/CHO#C3 (Euroscreen)
The receptor-expressing cells cultivated in the above medium were washed with phosphate buffer (×2) and thereto was added Buffer A (2 mL) under ice-cooling or 4° C. (the following procedures were also carried out at the same temperature). The cells were collected by using a cell-scraper, treated by a microtip-type ultrasonicator for 20 seconds (pulse-on: 2 sec, pulse-off: 1 sec) and centrifuged (500×g, 15 min). The supernatant was separated and centrifuged (43000×g, 60 min). The resultant pellet was suspended in Buffer A and homogenized with a potter-type homogenizer. To the homogenate was added an equal volume of 80% glycerol and stored at −80° C.
(2) Procedure of CB1 Receptor Binding Assay:
Radioligand: [^3H]-CP55940 (30 nM/7992 dpm/μL) prepared by diluting 8.3 µM solution of the radioligand with Buffer B
Each well of the assay plate (96-well, Costar Code#3371) was filled with Buffer B (140 μL), a solution of each test compound in dimethylsulfoxide (20 μL, […]), radioligand (20 μL) and membrane preparation (20 μL, 0.5 µg/20 μL) and the mixture was incubated at 30° C. for 90 minutes to proceed the binding reaction. The reaction mixture was harvested to each well of a plate presoaked with the above coating solution (Packard Unifilter GF/B, #6005177). The plate was washed with Buffer C (200 μL×10) and dried at 50° C. for 1 hour and Microscinti 40 (40 μL) was added to each well. The bound radiolabel was quantitated by scintilation counting (Top Count NXT, Packard). IC50 value of each test compound against the radioligand-binding to CB1 receptors was calculated on the basis of the quantitated radiolabel activity by using Graphpad Prism 3.02.
Compound `COc1c(C(=O)NC2CCCC2)nn(-c2ccccc2Cl)c1-c1ccc(Cl)cc1` [Example 55] gave an IC50 of 10 to 100 nM.
The same measure, in the same setting: then `COc1c(C(=O)NN2CCN(c3ccc(C(F)F)cn3)CC2)nn(-c2ccccc2Cl)c1-c1ccc(Cl)cc1` [Example 339, 1-(2-chlorophenyl)-5-(4-chlorophenyl)-3-[N-[4-(5-difluoromethyl-pyridin-2-yl)piperazin-1-yl]carbamoyl]-4-methoxy-1H-pyrazole], with 10 to 100 nM.

Still in this test, the particulars now being: radioligand [3H]-CP55940, membrane fraction of hCB1/CHO cells, 30° C. for 90 minutes; read-out: IC50.
Regarding `COc1c(C(=O)NN2CCN(C(=O)c3ccc(F)cc3F)CC2)nn(-c2ccccc2Cl)c1-c1ccc(Cl)cc1` [Example 216], the IC50 lay in the range of 10 to 100 nM.
Take `COc1c(C(=O)NCC(F)(F)F)nn(-c2ccccc2Cl)c1-c1ccc(Cl)cc1` [Example 4]: the concentration for half-maximal inhibition (IC50) lay in the range of 10 to 100 nM.
Regarding `COCCOc1c(C(=O)NN2CCCC2)nn(-c2ccccc2Cl)c1-c1ccc(C(F)(F)F)cc1` [Example 148], the IC50 lay within 10 to 100 nM.
Still for that read-out and setting: the result for `COc1c(C(=O)CN2CCS(=O)(=O)CC2)nn(-c2ccccc2Cl)c1-c1ccc(Cl)cc1` [Example 36, 1-(2-chlorophenyl)-5-(4-chlorophenyl)-4-methoxy-3-[1-(1,1-dioxothiomorpholino)acetyl]-1H-pyrazole] reads 10 to 100 nM; that for `NC(=O)COc1c(C(=O)NN2CCC(C(N)=O)(c3ccccc3)CC2)nn(-c2ccccc2Cl)c1-c1ccc(Cl)cc1` [Example 276, 1-(2-chlorophenyl)-5-(4-chloro-phenyl)-4-carbamoylmethoxy-3-[N-(4-carbamoyl-4-phenylpiperidin-1-yl)carbamoyl]-1H-pyrazole], 10 to 100 nM.
On the same count and under the same terms, the result for `CCNC(=O)NCCOc1c(C(=O)NN2CCCC2)nn(-c2ccccc2Cl)c1-c1ccc(Cl)cc1` [Example 288, 1-(2-chlorophenyl)-5-(4-chlorophenyl)-4-[2-(N′-ethylureido)ethoxy]-3-[N-(1-pyrrolidinyl)carbamoyl]-1H-pyrazole] reads 100 to 500 nM; that for “1-(2-chlorophenyl)-5-(4-chlorophenyl)-4-hydroxy-3-[N′-(4-tetrahydropyranyl)ureido]-1H-pyrazole [Example 18]”, 10 to 100 nM.
Same read-out and setting: the result for `O=C(NN1CCC(F)(F)CC1)c1nn(-c2ccccc2Cl)c(-c2ccc(Cl)cc2)c1OC(F)F` [Example 307] reads less than 10 nM; that for `CCNC1(C(N)=O)CCN(C(=O)c2nn(-c3ccccc3Cl)c(-c3ccc(Cl)cc3)c2O)CC1` [Example 279, 1-(2-chlorophenyl)-5-(4-chlorophenyl)-4-hydroxy-3-[[4-carbamoyl-4-(ethylamino)piperidino]carbonyl]-1H-pyrazole], 10 to 100 nM.
For `COc1c(C(=O)NN(C)C)nn(-c2ccccc2Cl)c1-c1ccc(C(F)(F)F)cc1` [Example 134], the half-inhibitory concentration (IC50) was 10 to 100 nM.

The term IC50 denotes the concentration that gives 50% inhibition.
